# In the supplement of paper PMC6045584:
# How the values were obtained:
# Assay in all cases: area under dose-response curve of surviving fraction (unscaled, Aref=0) (surviving fraction x log10(nM)); higher = more resistant
# Conditions in all cases: exposure time: 5 days; dose range 0.5-1000 nM
# VINORELBINE = compound: CCC1=C[C@@H]2CN(C1)Cc1c([nH]c3ccccc13)[C@@](C(=O)OC)(c1cc3c(cc1OC)N(C)[C@H]1[C@@](O)(C(=O)OC)[C@H](OC(C)=O)[C@]4(CC)C=CCN5CC[C@]31[C@@H]54)C2 [VINORELBINE]
# How it was run: (§1)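 Inhibitor was applied to tumour cell lines at eight concentrations (0.5 to 1000 nM) for five days in 384-well plates. Luminescence from CellTiter-Glo, scaled to DMSO-only wells, gave surviving fractions in three screens per line, and these were fitted by 3-parameter logistic regression with the drc R package. The area under the curve is an unscaled activity area. Aref was 0, and dose was on a log10 scale.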
# METHOTREXATE = compound: CN(Cc1cnc2nc(N)nc(N)c2n1)c1ccc(C(=O)N[C@@H](CCC(=O)O)C(=O)O)cc1 [METHOTREXATE]
# How it was run: as §1
# EVEROLIMUS = compound: CO[C@H]1C[C@@H]2CC[C@@H](C)[C@@](O)(O2)C(=O)C(=O)N2CCCC[C@H]2C(=O)O[C@H]([C@H](C)C[C@@H]2CC[C@@H](OCCO)[C@H](OC)C2)CC(=O)[C@H](C)/C=C(\C)[C@@H](O)[C@@H](OC)C(=O)[C@H](C)C[C@H](C)/C=C/C=C/C=C/1C [EVEROLIMUS]
# How it was run: as §1
# AZD4547 = compound: COc1cc(CCc2cc(NC(=O)c3ccc(N4CC(C)NC(C)C4)cc3)n[nH]2)cc(OC)c1 [AZD4547]
# How it was run: as §1
# [1] = compound: Cc1nc(Nc2n[nH]c3c2CN(C(=O)N[C@H](CN(C)C)c2ccccc2)C3(C)C)c2sccc2n1
# How it was run: as §1
# MK2206 = compound: NC1(c2ccc(-c3nc4ccn5c(=O)[nH]nc5c4cc3-c3ccccc3)cc2)CCC1 [MK2206]
# How it was run: as §1
# [2] = compound: O=C(NOCC1CC1)c1ccc(F)c(F)c1Nc1ccc(I)cc1Cl
# How it was run: as §1
# MK0752 = compound: O=C(O)CC[C@H]1CC[C@@](c2cc(F)ccc2F)(S(=O)(=O)c2ccc(Cl)cc2)CC1 [MK0752]
# How it was run: as §1
# SUNITINIB = compound: CCN(CC)CCNC(=O)c1c(C)[nH]c(/C=C2\C(=O)Nc3ccc(F)cc32)c1C [SUNITINIB]
# How it was run: as §1
Test System,area under dose-response curve (VINORELBINE),area under dose-response curve (METHOTREXATE),area under dose-response curve (EVEROLIMUS),area under dose-response curve (AZD4547),area under dose-response curve [1],area under dose-response curve (MK2206),area under dose-response curve [2],area under dose-response curve (MK0752),area under dose-response curve (SUNITINIB)
C33A CERVIX,1.62,2.33,1.43,3.03,0.95,3.12,2.3,3.7,–
CAL72 BONE,2.14,2.39,2.27,1.94,1.77,3.66,3.52,3.63,–
G292 BONE,1.48,3.41,1.68,1.58,1.22,2.96,3.17,3.19,2.82
HCC1395 BREAST,2.74,3.78,3.36,2.6,3.37,3.23,3.01,3.51,3.19
HUO3N1 BONE,2,2.8,2.1,2.9,2.38,2.94,3.35,–,2.62
LNCAP PROSTATE,1.23,2.36,1.21,2.84,0.726,2.02,2.93,3.22,–
SCC003 HEADNECK,1.98,2.41,–,–,1.57,–,2.83,–,2.83
